The target of data set [1] is T1, recombinant membrane-bound human mPGEs-1 (Homo sapiens, UniProt O14684).
T1 sequence (O14684 1-152): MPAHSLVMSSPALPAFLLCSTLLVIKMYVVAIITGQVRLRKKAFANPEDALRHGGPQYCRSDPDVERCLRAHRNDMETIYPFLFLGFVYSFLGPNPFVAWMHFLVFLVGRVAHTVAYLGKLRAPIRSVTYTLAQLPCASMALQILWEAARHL
Description: Thiobarbituric acid assay (TBA-MDA assay), inhibition of mPGEs-1. The conditions noted are these: arithmetic mean values, human mPGEs-1 TBA-MDA assay. In kind it is biochemical. An excerpt: Malondialdehyde is a product of lipid peroxidation and reacts with thiobarbituric acid forming a red product that absorbs light at 535 nm (W. G. Niehaus, Jr and B. Samuelsson, Eur. J. Biochem 6, 126 (1968)) and is also fluorescent. The extinction coefficient of the TBA-MDA conjugate is 1.56×10^5 M^−1 cm^−1 (E. D. Wills. Biochem. J. 113, 315 (1969). The method used for detection of inhibition of mPGEs-1 is based on the detection of the amount of remaining PGH2. This method was described more than 20 years ago by Basevich et al (Bioorg. Khim. 1983, 9(5), 658-665).
The assay used was a modified variant and used citric acid instead of the TCA-TBA-HCl reagent described in the original assay. In this assay, recombinant membrane-bound human mPGEs-1 was incubated with PGH2. The reaction was stopped by adding citric acid to a final pH 3 and a large excess of iron(II) chloride (20 mM) to convert any remaining PGH2 into MDA and 12-HHT. TBA reagent was finally added (0.67%) and the samples were heated at 80° C. for 30 min. The fluorescence of the conjugate was measured at 485/545 nm.
The product of mPGEs-1 (PGE2) was not measured directly in this assay, but rather the remaining substrate (PGH2) indirectly by adding FeCl2 that converts PGH2 into MDA and 12-HHT. As a positive control, a known mPGEs-1 inhibitor, MK-886, was used and the inhibition afforded by the new inhibitors was compared with that obtained from MK-886.

The target in data set [2] is T2, hERG potassium currents (CHO-K1 cells stably transfected with hERG) (Homo sapiens, UniProt Q12809).
T2 construct: expressed in transfected cells; host or cells: CHO-K1 cells (American Tissue Culture Collection), stably transfected
Kind of data set: Automated whole-cell patch-clamp hERG assay. In kind it is cell-based. The following applies: for pIC50: Qpatch, tail current, CHO-K1 cells, 0.39 μM to 100 μM cumulatively; for IC50 ratio hERG/mPGEs-1: ratio of hERG IC50 to human mPGEs-1 IC50. As for the experimental part: The automated whole-cell patch-clamp hERG assay uses CHO-K1 cells obtained from American Tissue Culture Collection. hERG cDNA (GenBank sequence NM_000238) was subcloned into pSI vector (Promega). The CHO-K1 cells were co-transfected with this construct and pPUR (containing puromycin selective marker, BD Bioscience). After selection in puromycin for 10 days, single colonies were selected and verified with hERG potassium currents. The stably transfected cells were cultured in F-12 Kaighn's Nutrient Mixture medium (Invitrogen)+10% FBS at 37 C for 1-3 days. Subsequently the cells were harvested by trypsination and kept in serum free medium at room temperature before recording. The cells were washed and resuspended in extracellular solution before being applied to the patch clamp sites.
After whole cell configuration was achieved, the cell was held at −80 mV. A 50 millisecond pulse to −40 mV was delivered to measure the leaking current, which was subtracted from the tail current on-line. Then the cell was de-polarized to +20 mV for 2 seconds, followed by a second pulse to −40 mV to reveal hERG tail current. The paradigm was delivered once every 5 seconds to monitor the current amplitude. The extracellular solution (control) was applied first and the cell was stabilized in extracellular solution for 5 minutes. Then the test compound was applied from low concentrations (0.39 μM) to high concentrations (100 μM) cumulatively. The cell was incubated with each test concentration for 5 minutes. During the incubation, the cell was repeatedly stimulated using the voltage protocol described above, and the tail current amplitude was continuously monitored.
Data were acquired by Qpatch (Sophion Bioscience) and the degree of inhibition (%) was obtained by measuring the tail current amplitude before and after test compound incubation (the difference in current was normalized to control and multiplied by 100 to obtain the percent of inhibition). Concentration (log) response curves were fitted to a logistic equation (three parameters assuming complete block of the current at very high test compound concentrations) to generate estimates of the 50% inhibitory concentration (IC50). The concentration-response relationship of each compound was constructed from the percentage reductions of current amplitude by sequential concentrations (0.39 μM to 100 μM).
Further background information on the hERG assay is available in Expert Opin. Ther. Targets (2006) 10(2):319-327.
Background: Patch clamp records ionic current or voltage across a cell membrane.

pIC50: −log10 of the molar value. Bounds are passed on as bounds.

T2 sequence (Q12809 whole entry): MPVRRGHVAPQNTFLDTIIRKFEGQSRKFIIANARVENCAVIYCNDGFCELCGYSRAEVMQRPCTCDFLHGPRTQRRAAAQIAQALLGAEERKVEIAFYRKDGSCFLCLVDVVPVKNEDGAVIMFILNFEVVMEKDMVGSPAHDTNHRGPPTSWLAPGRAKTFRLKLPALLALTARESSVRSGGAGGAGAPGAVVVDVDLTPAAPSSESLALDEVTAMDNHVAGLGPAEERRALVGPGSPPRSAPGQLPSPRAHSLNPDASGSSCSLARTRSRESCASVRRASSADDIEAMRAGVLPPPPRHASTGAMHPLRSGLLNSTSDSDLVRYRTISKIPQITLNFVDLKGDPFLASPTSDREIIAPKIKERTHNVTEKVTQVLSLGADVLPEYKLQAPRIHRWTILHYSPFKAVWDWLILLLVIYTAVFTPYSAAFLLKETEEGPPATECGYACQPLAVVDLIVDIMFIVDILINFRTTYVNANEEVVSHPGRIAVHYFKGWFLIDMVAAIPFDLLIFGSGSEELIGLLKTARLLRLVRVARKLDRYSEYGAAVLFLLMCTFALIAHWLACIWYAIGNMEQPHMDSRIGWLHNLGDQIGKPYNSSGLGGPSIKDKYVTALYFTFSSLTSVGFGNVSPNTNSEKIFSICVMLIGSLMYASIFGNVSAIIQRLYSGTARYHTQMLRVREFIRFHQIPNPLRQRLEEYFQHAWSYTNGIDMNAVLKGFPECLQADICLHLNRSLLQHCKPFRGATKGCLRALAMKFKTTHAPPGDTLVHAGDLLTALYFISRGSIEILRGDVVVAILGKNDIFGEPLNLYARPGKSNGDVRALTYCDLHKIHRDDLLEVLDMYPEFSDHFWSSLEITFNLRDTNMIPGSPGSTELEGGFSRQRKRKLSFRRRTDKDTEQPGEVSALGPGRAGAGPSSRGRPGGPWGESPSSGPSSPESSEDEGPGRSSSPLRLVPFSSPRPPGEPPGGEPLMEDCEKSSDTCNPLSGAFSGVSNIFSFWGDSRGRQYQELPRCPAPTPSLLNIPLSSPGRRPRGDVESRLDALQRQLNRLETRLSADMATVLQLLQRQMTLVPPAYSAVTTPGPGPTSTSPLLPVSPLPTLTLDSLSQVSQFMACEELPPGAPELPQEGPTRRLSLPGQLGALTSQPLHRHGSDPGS

For `O=C(N[C@@H]1CCOC1)C1CCN(c2nc3cc(Cl)c(Cl)cc3n2-c2cccc(C(F)(F)F)n2)CC1` [Comparative Example 5, (R)-1-(5,6-dichloro-1-(6-(trifluoromethyl)pyridin-2-yl)-1H-benzo[d]imidazol-2-yl)-N-(tetrahydrofuran-3-yl)piperidine-4-carboxamide], in data set [1], the negative-log IC50 (pIC50) (in general, −log10 of the IC50, conventionally taken in molar units) was 7.62. In addition, in data set [2], the pIC50 was 5.68 and the “IC50 ratio hERG/mPGEs-1” value is 88.

Consider `Cc1cc2nc(N3CCC(C(=O)N[C@H]4COC[C@@H]4O)CC3)n(-c3cccc(C(F)(F)F)n3)c2cc1Cl` [Example 2, 1-(6-chloro-5-methyl-1-(6-(trifluoromethyl)pyridin-2-yl)-1H-benzo[d]imidazol-2-yl)-N-((3S,4R)-4-hydroxytetrahydrofuran-3-yl)piperidine-4-carboxamide], for which the pIC50 in data set [1] is 7.49. In data set [2], the negative-log IC50 (pIC50) is under 4.00 and the “IC50 ratio hERG/mPGEs-1” value is reported as over 3125.

Regarding `Cc1cc2nc(N3CCC(C(=O)N[C@@H]4CCOC4)CC3)n(-c3ccc(C(F)(F)F)cn3)c2cc1Cl` [Comparative Example 4, (R)-1-(6-chloro-5-methyl-1-(5-(trifluoromethyl)pyridin-2-yl)-1H-benzo[d]imidazol-2-yl)-N-(tetrahydrofuran-3-yl)-piperidine-4-carboxamide], in data set [2], the pIC50 was 4.85 and the “IC50 ratio hERG/mPGEs-1” value came to 304.

For `Cc1cc2c(cc1Cl)nc(N1CCC(C(=O)N[C@H]3COC[C@@H]3O)CC1)n2-c1cccc(C(F)(F)F)n1` [Example 1, 1-(5-chloro-6-methyl-1-(6-(trifluoromethyl)pyridin-2-yl)-1H-benzo[d]imidazol-2-yl)-N-((3S,4R)-4-hydroxytetrahydrofuran-3-yl)piperidine-4-carboxamide], the pIC50 in data set [1] is 7.42. Besides, in data set [2], the negative-log IC50 (pIC50) is 4.42 and the “IC50 ratio hERG/mPGEs-1” value is given as 1000.

As to `Cc1cc2c(cc1Cl)nc(N1CCC(C(=O)N[C@@H]3CCOC3)CC1)n2-c1ccc(C(F)(F)F)cn1` [Comparative Example 3, (R)-1-(5-chloro-6-methyl-1-(5-(trifluoromethyl)pyridin-2-yl)-1H-benzo[d]imidazol-2-yl)-N-(tetrahydrofuran-3-yl)-piperidine-4-carboxamide], in data set [2], the negative logarithm of the IC50 (pIC50) was 4.72 and the “IC50 ratio hERG/mPGEs-1” value turned out to be 328.

The record behind these values is patent publication US20160194308A1, “NOVEL PIPERIDINYL BENZOIMIDAZOLE DERIVATIVES AS MPGES-1 INHIBITORS” (NovaSAID AB, priority 2013, published 2016).
